The compounds below were run against T1, p53 Y220C (Homo sapiens, UniProt P04637, Y220C) (assay: In vitro DNA binding activity assay (HTRF / TR-FRET): stabilization of p53 Y220C and increase of its DNA binding activity). Settings: recombinant His-tagged p53 Y220C DNA binding domain (aa 94-312), biotin-labeled consensus DNA, incubated at 27° C. or 29° C. for 60 min.
T1 construct: The recombinant protein was a truncation mutant containing only amino acids 94-312 of p53; made in house; host or cells: E. coli
T1 sequence (P04637 94-312, change not shown): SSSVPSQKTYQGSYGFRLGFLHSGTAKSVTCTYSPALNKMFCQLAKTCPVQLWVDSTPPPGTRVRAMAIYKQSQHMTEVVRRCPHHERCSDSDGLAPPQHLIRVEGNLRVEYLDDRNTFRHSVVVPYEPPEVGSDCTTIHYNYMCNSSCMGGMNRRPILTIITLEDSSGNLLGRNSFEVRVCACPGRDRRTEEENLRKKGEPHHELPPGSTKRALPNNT
Assay type: biochemical
Outline: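 His-tagged p53 Y220C, E. coli-expressed, binding biotin-labeled consensus DNA measured by HTRF (anti-His-APC, streptavidin-europium). Compounds from 4.5 mM DMSO stocks, 3-fold serial dilutions; incubations at room temperature 15 min, then 20 min. SC150 = concentration raising DNA binding by 50%.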

SMILES | SC150 (concentration of the compound required to increase the DNA binding activity by 50%)
COc1cc(S(=O)(=O)NC(C)=O)ccc1NCC#Cc1cc2c(N[C@H]3CC[C@@H](N(C)C)CC3)cccc2n1CC(F)(F)F [Compound 84A, N-(3-methoxy-4-{[3-(4-{[(1S,4S)-4-(dimethylamino)cyclohexyl]amino}-1-(2,2,2-trifluoroethyl)-1H-indol-2-yl)prop-2-yn-1-yl]amino}benzenesulfonyl)acetamide] | ++ (++ = 0.05 μM ≤ SC150 < 0.1 μM)
COc1cc(S(=O)(=O)NC(C)=O)ccc1NCC#Cc1cc2c(NC3CCN(CC4COC(=O)O4)CC3)cccc2n1CC(F)(F)F (centres unmarked) [Compound 761A, N-[3-methoxy-4-({3-[4-({1-[(2-oxo-1,3-dioxolan-4-yl)methyl]piperidin-4-yl}amino)-1-(2,2,2-trifluoroethyl)-1H-indol-2-yl]prop-2-yn-1-yl}amino)benzenesulfonyl]acetamide] | + (+ = 0 μM ≤ SC150 < 0.05 μM)
COc1cc(S(=O)(=O)Nc2ccon2)ccc1NCC#Cc1cc2c(N[C@H]3CC[C@@H](N(C)C)CC3)cccc2n1CC(F)(F)F [Compound 50A, 3-methoxy-N-(1,2-oxazol-3-yl)-4-{[3-(4-{[(1S,4S)-4-(dimethylamino)cyclohexyl]amino}-1-(2,2,2-trifluoro-ethyl)-1H-indol-2-yl)prop-2-yn-1-yl]amino}benzene-1-sulfonamide] | + (+ = 0 μM ≤ SC150 < 0.05 μM)
CCN1CC[C@@H](Nc2cccc3c2cc(C#CCNc2ccc(C(N)=O)cc2OC)n3CC(F)(F)F)[C@@H](F)C1 [Compound 1063A, 4-{[3-(4-{[(3S,4R)-1-ethyl-3-fluoropiperidin-4-yl]amino}-1-(2,2,2-trifluoroethyl)-1H-indol-2-yl)prop-2-yn-1-yl]amino}-3-methoxybenzamide] | + (+ = 0 μM ≤ SC150 < 0.05 μM)
COc1cc(C(N)=O)ccc1NCC#Cc1cc2c(N[C@H]3CC[C@H](N4CC5(CCCOC5)C4)CC3)cccc2n1CC(F)(F)F [Compound 333A, 3-methoxy-4-{[3-(4-{[(1R,4R)-4-{6-oxa-2-azaspiro[3.5]nonan-2-yl}cyclohexyl]amino}-1-(2,2,2-trifluoroethyl)-1H-indol-2-yl)prop-2-yn-1-yl]amino}benzamide] | + (+ = 0 μM ≤ SC150 < 0.05 μM)
COc1cc(S(=O)(=O)NCC(O)CO)ccc1NCC#Cc1cc2c(NC3CCS(=O)(=O)CC3)cccc2n1CC(F)(F)F (centres unmarked) [Compound 1042A, N-(2,3-dihydroxypropyl)-4-[(3-{4-[(1,1-dioxo-1λ^6-thian-4-yl)amino]-1-(2,2,2-trifluoroethyl)-1 H-indol-2-yl}prop-2-yn-1-yl)amino]-3-methoxybenzene-1-sulfonamide] | + (+ = 0 μM ≤ SC150 < 0.05 μM)
COc1cc(S(C)(=O)=O)ccc1NCC#Cc1cc2c(N[C@@H]3CCO[C@@H](C)C3)cccc2n1CC(F)(F)F [Compound 1016A, 2-{3-[(4-methanesulfonyl-2-methoxyphenyl)amino]prop-1-yn-1-yl}-N-[(2S,4R)-2-methyloxan-4-yl]-1-(2,2,2-trifluoroethyl)-1H-indol-4-amine] | + (+ = 0 μM ≤ SC150 < 0.05 μM)
COc1cc(S(N)(=O)=O)ccc1NCC#Cc1cc2c(N[C@H]3CC[C@H](N4CCC5(CCO5)CC4)CC3)cccc2n1CC(F)(F)F [Compound 387A, 3-methoxy-4-{[3-(4-{[(1R,4R)-4-{1-oxa-7-azaspiro[3.5]nonan-7-yl}cyclohexyl]amino}-1-(2,2,2-trifluoroethyl)-1H-indol-2-yl)prop-2-yn-1-yl]amino}benzene-1-sulfonamide] | + (+ = 0 μM ≤ SC150 < 0.05 μM)
COc1cc(S(C)(=O)=O)ccc1NCC#Cc1cc2c(N[C@H]3CCN(C)C[C@@H]3F)cccc2n1CC(F)(F)F (stereo in doubt) [Compound 774A, N-((3S,4S)-3-fluoro-1-methylpiperidin-4-yl)-2-(3-((2-methoxy-4-(methylsulfonyl)phenyl)amino)prop-1-yn-1-yl)-1-(2,2,2-trifluoroethyl)-1H-indol-4-amine] | + (+ = 0 μM ≤ SC150 < 0.05 μM)
CCOc1cc(S(C)(=O)=O)ccc1NCC#Cc1cc2c(N[C@@H]3CCNC[C@@H]3F)cccc2n1CC(F)(F)F [Compound 941A, 2-{3-[(2-ethoxy-4-methanesulfonylphenyl)amino]prop-1-yn-1-yl}-N-[(3S,4R)-3-fluoropiperidin-4-yl]-1-(2,2,2-trifluoroethyl)-1H-indol-4-amine] | + (+ = 0 μM ≤ SC150 < 0.05 μM)
CNC(=O)c1ccc(NCC#Cc2cc3c(N[C@H]4CC[C@@H](N5CC6(COC6)C5)CC4)cccc3n2CC(F)(F)F)c(OC)c1 [Compound 230A, 3-methoxy-N-methyl-4-{[3-(4-{[(1S,4S)-4-{2-oxa-6-azaspiro[3.3]heptan-6-yl}cyclo-hexyl]amino}-1-(2,2,2-trifluoroethyl)-1H-indol-2-yl)prop-2-yn-1-yl]amino}benzamide] | + (+ = 0 μM ≤ SC150 < 0.05 μM)
COc1cc(C(=O)N2CCC(O)CC2)ccc1NCC#Cc1cc2c(NC3CCN(C)CC3)cccc2n1CC(F)(F)F [Compound 492A] | + (+ = 0 μM ≤ SC150 < 0.05 μM)
COc1cc(C(N)=O)c(F)cc1NCC#Cc1cc2c(N[C@H]3CC[C@H](N(C)C)CC3)cccc2n1CC(F)(F)F [Compound 132A, 4-((3-(4-(((1R,4R)-4-(dimethylamino)cyclohexyl)amino)-1-(2,2,2-trifluoroethyl)-1H-indol-2-yl)prop-2-yn-1-yl)amino)-2-fluoro-5-methoxybenzamide] | + (+ = 0 μM ≤ SC150 < 0.05 μM)
COc1cc(C(=O)NCCO)ccc1NCC#Cc1cc2c(N[C@@H]3CCN(C)C[C@@H]3F)cccc2n1CC(F)(F)F [Compound 947A] | + (+ = 0 μM ≤ SC150 < 0.05 μM)
CNC(=O)c1ccc(NCC#Cc2cc3c(NC4CCC(C#N)CC4)cccc3n2CC(F)(F)F)c(OC)c1 (centres unmarked) [Compound 33A, 4-[(3-{4-[(4-cyanocyclohexyl)amino]-1-(2,2,2-trifluoroethyl)-1H-indol-2-yl}prop-2-yn-1-yl)amino]-3-methoxy-N-methylbenzamide] | + (+ = 0 μM ≤ SC150 < 0.05 μM)
COc1cc(S(C)(=O)=O)ccc1NCC#Cc1cc2c(N[C@@H]3CCN(C(C)C)C[C@@H]3F)cccc2n1CC(F)(F)F [Compound 802A] | + (+ = 0 μM ≤ SC150 < 0.05 μM)
CS(=O)(=O)c1ccc(NCC#Cc2cc3c(N[C@H]4CC[C@H](N5CC6(COC6)C5)CC4)cccc3n2CC(F)(F)F)c(O)c1 [Compound 214A, 5-methanesulfonyl-2-{[3-(4-{[(1R,4R)-4-{2-oxa-6-azaspiro[3.3]heptan-6-yl}cyclohexyl]amino}-1-(2,2,2-trifluoro-ethyl)-1H-indol-2-yl)prop-2-yn-1-yl]amino}phenol] | + (+ = 0 μM ≤ SC150 < 0.05 μM)
COc1cc(S(=O)(=O)N2CCOCC2)ccc1NCC#Cc1cc2c(NC3CCNCC3)cccc2n1CC(F)(F)F [Compound 459A, 2-(3-{[2-methoxy-4-(morpholine-4-sulfonyl)phenyl]amino}prop-1-yn-1-yl)-N-(piperidin-4-yl)-1-(2,2,2-trifluoroethyl)-1H-indol-4-amine] | + (+ = 0 μM ≤ SC150 < 0.05 μM)
CNC(=O)c1ccc(NCC#Cc2cc3c(N[C@H]4CC[C@H](N(C)CCOC)CC4)cccc3n2CC(F)(F)F)c(OC)c1 [Compound 151A, 3-methoxy-N-methyl-4-{[3-(4-{[(1R,4R)-4-[(2-methoxyethyl) (methyl)amino]cyclo-hexyl]amino}-1-(2,2,2-trifluoroethyl)-1H-indol-2-yl)prop-2-yn-1-yl]amino}benzamide] | + (+ = 0 μM ≤ SC150 < 0.05 μM)
CN1CC[C@@H](Nc2cccc3c2cc(C#CCNc2ccc(S(C)(=O)=O)cc2O)n3CC(F)(F)F)[C@@H](F)C1 [Compound 834A, 2-{[3-(4-{[(3S,4R)-3-fluoro-1-methylpiperidin-4-yl]amino}-1-(2,2,2-trifluoroethyl)-1H-indol-2-yl)prop-2-yn-1-yl]amino}-5-methanesulfonylphenol] | + (+ = 0 μM ≤ SC150 < 0.05 μM)
COc1cc(S(N)(=O)=O)ccc1NCC#Cc1cc2c(NC3CCN(C)CC3)cc(F)cc2n1CC(F)(F)F [Compound 474A, 4-[(3-{6-fluoro-4-[(1-methylpiperidin-4-yl)amino]-1-(2,2,2-trifluoroethyl)-1H-indol-2-yl}prop-2-yn-1-yl)amino]-3-methoxybenzene-1-sulfonamide] | + (+ = 0 μM ≤ SC150 < 0.05 μM)
COc1cc(C(=O)O)ccc1NCC#Cc1cc2c(N[C@@H]3CCN(CC(=O)N(C)C)C[C@@H]3F)cccc2n1CC(F)(F)F [Compound 920A, 4-{[3-(4-{[(3S,4R)-1-[(dimethylcarbamoyl)methyl]-3-fluoropiperidin-4-yl]amino}-1-(2,2,2-trifluoroethyl)-1H-indol-2-yl)prop-2-yn-1-yl]amino}-3-methoxybenzoic acid] | + (+ = 0 μM ≤ SC150 < 0.05 μM)
CNC(=O)c1ccc(NCC#Cc2cc3c(NC4CCN(C[C@H](O)COC)CC4)cccc3n2CC(F)(F)F)c(OC)c1 [Compound 648A, 4-({3-[4-({1-[(2S)-2-hydroxy-3-methoxypropyl]piperidin-4-yl}amino)-1-(2,2,2-trifluoroethyl)-1H-indol-2-yl]prop-2-yn-1-yl}amino)-3-methoxy-N-methylbenzamide] | + (+ = 0 μM ≤ SC150 < 0.05 μM)
